Data from patent US7495100B2, “Synthesis of indenoisoquinolines” (Purdue Research Foundation, priority 2004, dated 2009).
Where two headings read alike, the source gives them in different places.

How the values were obtained:
[1] = system: UACC-62; assay: NCI screen antiproliferative activity, melanoma UACC-62; assay type: cell-based, human; details: concentration corresponding to 50% growth inhibition, read-out: cytotoxicity GI50 melanoma UACC-62
Experimental: (§1) The indenoisoquinolines described herein were examined for antiproliferative activity against the human cancer cell lines in the National Cancer Institute screen, in which the activity of each compound was evaluated with approximately 55 different cancer cell lines of diverse tumor origins. The MGM is based on a calculation of the average GI50 for all of the cell lines tested (approximately 55) in which GI50 values below and above the test range (10^−8 to 10^−4 molar) are taken as the minimum (10^−8 molar) and maximum (10^−4 molar) drug concentrations used in the screening test. The relative potencies of the compounds described herein in the production of topoisomerase I-mediated DNA cleavage are also listed in Table 1.

[2] = system: MDA-MB-435; assay: NCI screen antiproliferative activity, breast MDA-MB-435; assay type: cell-based, human; details: concentration corresponding to 50% growth inhibition, read-out: cytotoxicity GI50 breast MDA-MB-435
Experimental: as §1

[3] = system: SN12C; assay: NCI screen antiproliferative activity, renal SN12C; assay type: cell-based, human; details: concentration corresponding to 50% growth inhibition, read-out: cytotoxicity GI50 renal SN12C
Experimental: as §1

[4] = system: HCT-116; assay: NCI screen antiproliferative activity, colon HCT-116; assay type: cell-based, human; details: concentration corresponding to 50% growth inhibition, read-out: cytotoxicity GI50 colon HCT-116
Experimental: as §1

[5] = system: DU-145; assay: NCI screen antiproliferative activity, prostate DU-145; assay type: cell-based, human; details: concentration corresponding to 50% growth inhibition, read-out: cytotoxicity GI50 prostate DU-145
Experimental: as §1

[6] = system: HOP-62; assay: NCI screen antiproliferative activity, lung HOP-62; assay type: cell-based, human; details: concentration corresponding to 50% growth inhibition, read-out: cytotoxicity GI50 lung HOP-62
Experimental: as §1

[7] = system: SF-268; assay: NCI screen antiproliferative activity, CNS SF-268; assay type: cell-based, human; details: concentration corresponding to 50% growth inhibition, read-out: cytotoxicity GI50 CNS SF-268
Experimental: as §1

[8] = system: human cancer cell lines in the National Cancer Institute screen; assay: NCI screen mean graph midpoint over approximately 55 cancer cell lines; assay type: cell-based; details: for MGM (mean graph midpoint for growth inhibition): average GI50 of all human cancer cell lines tested (approximately 55), test range 10^-8 to 10^-4 molar
Experimental: as §1

[9] = target: T1, topoisomerase I (top1) (Homo sapiens, UniProt P11387); assay: topoisomerase I-mediated DNA cleavage; assay type: biochemical; design: key: +: weak activity; ++: similar activity as the parent compound 25; +++: greater activity than the parent compound 25; ++++: similar activity as 1 μM camptothecin; details: tested at concentrations ranging up to 10 μM; semi-quantitative
T1 sequence (P11387 1-765): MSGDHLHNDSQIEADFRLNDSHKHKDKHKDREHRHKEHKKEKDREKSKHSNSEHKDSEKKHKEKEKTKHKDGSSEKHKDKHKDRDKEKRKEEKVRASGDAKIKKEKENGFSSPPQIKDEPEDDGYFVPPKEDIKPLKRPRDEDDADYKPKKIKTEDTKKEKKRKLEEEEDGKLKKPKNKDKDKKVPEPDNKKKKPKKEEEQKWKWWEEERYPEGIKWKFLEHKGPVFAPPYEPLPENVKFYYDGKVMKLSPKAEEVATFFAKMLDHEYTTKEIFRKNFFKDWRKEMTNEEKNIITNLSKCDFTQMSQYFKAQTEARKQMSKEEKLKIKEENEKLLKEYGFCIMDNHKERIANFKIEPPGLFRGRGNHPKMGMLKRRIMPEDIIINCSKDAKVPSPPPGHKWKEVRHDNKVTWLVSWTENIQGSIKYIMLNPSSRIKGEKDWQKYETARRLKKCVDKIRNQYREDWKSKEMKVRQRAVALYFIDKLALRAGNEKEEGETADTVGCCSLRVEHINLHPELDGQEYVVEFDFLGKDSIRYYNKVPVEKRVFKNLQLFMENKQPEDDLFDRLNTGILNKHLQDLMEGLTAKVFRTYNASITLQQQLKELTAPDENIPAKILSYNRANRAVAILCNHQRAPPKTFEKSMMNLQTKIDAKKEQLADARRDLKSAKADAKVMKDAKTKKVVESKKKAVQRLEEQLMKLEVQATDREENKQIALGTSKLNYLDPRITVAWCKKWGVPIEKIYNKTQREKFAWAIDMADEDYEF
Experimental: as §1

[10] = system: OVCAR-3; assay: NCI screen antiproliferative activity, ovarian OVCAR-3; assay type: cell-based, human; details: concentration corresponding to 50% growth inhibition, read-out: cytotoxicity GI50 ovarian OVCAR-3
Experimental: as §1

[11] = average GI50 of all cell lines tested

Compound | GI50 [1] [nM] | GI50 [2] [nM] | GI50 [3] [nM] | GI50 [4] [nM] | GI50 [5] [nM] | GI50 [6] [nM] | GI50 [7] [nM] | cytotoxicity (MGM) as stated in text [8, 11] [nM] | MGM (mean graph midpoint for growth inhibition) [8] [µM] | Top 1 Cleavage [9] | GI50 [10] [µM] | activity (MGM) [8, 11] [nm] | GI50 ([1]; Homo sapiens, UACC-62) [nM] | GI50 ([2]; Homo sapiens, MDA-MB-435) [nM] | GI50 ([3]; Homo sapiens, SN12C) [nM] | GI50 ([4]; Homo sapiens, HCT-116) [nM] | GI50 ([5]; Homo sapiens, DU-145) [nM] | GI50 ([6]; Homo sapiens, HOP-62) [nM] | GI50 ([7]; Homo sapiens, SF-268) [nM] | GI50 ([10]; Homo sapiens, OVCAR-3) [µM]
[N-]=[N+]=NCCCn1c2c(c3ccc([N+](=O)[O-])cc3c1=O)C(=O)c1cc3c(cc1-2)OCO3 [Compound 16] | < 10 | < 10 | < 10 | < 10 | < 10 | < 10 | < 10 | 98 | 0.098 ± 0.06 | ++++ | < 0.01 | – | – | – | – | – | – | – | – | –
Cl.NCCCn1c2c(c3ccc([N+](=O)[O-])cc3c1=O)C(=O)c1ccccc1-2 [Compound 24] | 372 | – | 102 | 85 | 148 | 275 | 302 | – | 0.245 | – | – | – | – | – | – | – | – | – | – | –
O=C1c2cc3c(cc2C2C1c1ccc([N+](=O)[O-])cc1C(=O)N2CCCBr)OCO3 (racemic) [Compound 12] | < 10 | < 10 | < 10 | < 10 | < 10 | < 10 | < 10 | – | 0.016 ± 0.003 | + | < 0.01 | 16 | – | – | – | – | – | – | – | –
[N-]=[N+]=NCCCn1c2c(c3ccc([N+](=O)[O-])cc3c1=O)C(=O)c1ccccc1-2 [Compound 23] | – | – | – | – | – | – | – | – | 13.5 | – | – | – | 44700 | > 100000 | 72400 | 8130 | > 100000 | > 100000 | 79400 | –
O=C1c2ccccc2-c2c1c1ccc([N+](=O)[O-])cc1c(=O)n2CCCCl [Compound 22] | – | – | – | – | – | – | – | – | 18.2 | – | – | – | 20400 | 31600 | 26900 | 3630 | 40700 | 43700 | 23400 | 4.9
O=C1c2cc3c(cc2C2C1c1ccc([N+](=O)[O-])cc1C(=O)N2CCCCl)OCO3 (racemic) [Compound 13] | < 10 | < 10 | < 10 | < 10 | < 10 | < 10 | < 10 | – | 0.018 ± 0.001 | + | < 0.01 | 18 | – | – | – | – | – | – | – | –
CN1C(=O)c2cc([N+](=O)[O-])ccc2C2C(=O)c3cc4c(cc3C21)OCO4 (racemic) [Compound 14] | 26 | 107 | 33 | 14 | 50 | 158 | 24 | – | 0.105 ± 0.007 | +++ | 0.03 | – | – | – | – | – | – | – | – | –
O=C1c2cc3c(cc2-c2c1c1ccc([N+](=O)[O-])cc1c(=O)n2CCCCl)OCO3 [Compound 15] | 229 | 1820 | 132 | 2400 | 98 | 410 | 148 | – | 0.832 | +++ | 9.12 | – | – | – | – | – | – | – | – | –
O=C1c2ccccc2-c2c1c1ccc([N+](=O)[O-])cc1c(=O)n2CCCBr [Compound 20] | > 100000 | > 100000 | > 100000 | 3450 | > 100000 | – | > 100000 | – | 40 | 0 | > 100 | – | – | – | – | – | – | – | – | –
Cl.Nc1ccc2c3c(n(CCCCl)c(=O)c2c1)-c1cc2c(cc1C3=O)OCO2 [Compound 18] | > 100000 | > 100000 | > 100000 | – | – | – | > 100000 | – | 25 | 0 | > 100 | – | – | – | – | – | – | – | – | –
